The record followed here is patent US20260091043A1, “COMPOSITIONS AND METHODS FOR TREATING MYCOBACTERIUM INFECTIONS” (DATA2DISCOVERY, INC., priority 2022, published 2026).

Structures are written as SMILES. Read-outs that look alike come from different tables or passages of the source.

Test [1] concerns M. abscessus (ATCC Smooth strain). Put plainly: M. abscessus (ATCC Smooth strain) resazurin growth inhibition assay. It counts as cell-based, Mycobacterium abscessus. The settings on record: for IC50 / IC90: Mycobacteroides abscessus; for activity against M. abscessus (in words): summary of table results. Background: The colour change of resazurin is a common sign of viable cells or microbes.

The subject of test [2] is M. tuberculosis (H37RV strain). Put plainly: M. tuberculosis (H37RV strain) resazurin growth inhibition assay. Conditions: for IC50 / IC90: Mycobacterium tuberculosis; for activity against M. tuberculosis (in words): summary of table results. It counts as cell-based, Mycobacterium tuberculosis.
Where [3] appears, read: M. abscessus ATCC Smooth, 96 well plate, 37° C. 4 days, resazurin, read after 1 day, read-out: IC50.
The mark [4] stands for this setting: M. abscessus ATCC Smooth, 96 well plate, 37° C. 4 days, resazurin, read after 1 day, read-out: IC90.
[5] abbreviates: M. tuberculosis H37RV, 96 well plate, 37° C. 4 days, resazurin, read 3 days later, read-out: IC50.
The mark [6] stands for this setting: M. tuberculosis H37RV, 96 well plate, 37° C. 4 days, resazurin, read 3 days later, read-out: IC90.

As to `NCC[C@H](O)C(=O)N[C@@H]1C[C@H](N)[C@@H](O[C@H]2O[C@H](CN)[C@@H](O)[C@H](O)[C@H]2O)[C@H](O)[C@H]1O[C@H]1O[C@H](CO)[C@@H](O)[C@H](N)[C@H]1O` [Amikacin], the IC50 (usually the concentration that inhibits the measured activity by half) in test [1] (setting [3]) came out at 4.78 µM. Besides, the IC90 – broadly, the concentration needed for an effect of 90% – in test [1] (setting [4]) turned out to be 7.15 µM.
As to `NC[C@H]1O[C@H](O[C@H]2[C@H](O)[C@@H](O[C@H]3O[C@H](CO)[C@@H](O)[C@H](N)[C@H]3O)[C@H](N)C[C@@H]2N)[C@H](O)[C@@H](O)[C@@H]1O` [Kanamycin], the IC50 in test [2] (setting [5]) stood at 1.06 µM; in test [1] (setting [3]), 12.1 µM. In addition, the IC90 in test [2] (setting [6]) worked out at 4.22 µM; in test [1] (setting [4]), 16.1 µM.
Take `O=C(Nc1ccc([N+](=O)[O-])cc1Cl)c1cc(Cl)ccc1O` [Niclosamide, niclosamide]: the IC50 in test [2] (setting [5]) was found to be 1.92 µM; in test [1] (setting [3]), 32.2 µM. The IC90 came out at 2.95 µM in test [2] (setting [6]) and 59.1 µM in test [1] (setting [4]). In addition, the “activity against M. tuberculosis compared to kanamycin (in words)” value in test [2] (comparison with control kanamycin) was “superior overall to kanamycin”. Besides, the “activity against M. tuberculosis (in words)” value in test [2] was “significant activity”. In test [1], the “activity against M. abscessus (in words)” value is “significant activity”.
As to `O=C(Nc1ccc(Br)cc1)c1cc(Br)cc(Br)c1O` [Tribromsalan, 3,5,4′-tribromosalicylanilide], in test [2] (H37RV), the IC50 came out at 67.2 µM and the 90% effect concentration (IC90) was 76.9 µM. In addition, the “activity against M. tuberculosis (in words)” value in test [2] was “significant activity”. In addition, in test [1], the midpoint of inhibition, the IC50, lay at 99.8 µM; the IC90 came out at 147 µM; the “activity against M. abscessus (in words)” value is reported as “significant activity”.
